Laboratory results: patent publication US20160199434A1, “COMPOSITIONS AND METHODS FOR MODULATING DNA METHYLATION” (OHIO STATE INNOVATION FOUNDATION, priority 2013, published 2016)
“Also recorded” adds a separate entry of the source.

Columns and labels:
[1] = tested on: desmoplakin (DSP) gene promoter; assay: Methylation of DSP promoter in MCF-7 breast cancer cells; assay type: cell-based, human
Method: (§1) FIGS. 3A-3E show the effect of AKB-6899 (25 μM) on methylation of the desmoplakin (DSP) gene promoter in PyMT breast cancer cells (3A), human MDA-MB-231 triple negative breast cancer cells (3B), human C8161.9 melanoma cells (3C), and human MCF-7 breast cancer cells (3D). In FIG. 3A, the DSP promoter was 100% unmethylated (AKB-6899) vs. 99.99% methylated (vehicle). In FIG. 3B, the DSP promoter was 99.62% unmethylated (AKB-6899) v. 99.89% (vehicle). In FIG. 3C, the DSP promoter was 99.90% unmethylated (AKB-6899) v. 42.04% (vehicle). In FIG. 3D, the DSP promoter was 92.48% unmethylated (AKB-6899) v. 98.48% (vehicle). In FIG. 3E, when compared to the vehicle (DMSO), treatment of PyMT cells with AKB-6899 increased DSP expression.
(§2) The gene expression signatures from the tumors of PyMT breast tumor-bearing mice that were treated with either vehicle or AKB-6899 were evaluated. […] Methylation-specific PCR on the desmoplakin promoter was performed. The level of hypomethylation was near complete.

RASSF1 mRNA = RASSF1 mRNA expression in lungs of normal mice; assay type: in vivo, mouse; conditions: i.p., three weeks (FIG. 14C)
Method: (§3) FIGS. 14A-14C show the effects of systemic administration of AKB-6899. Mice were treated three times per week for three weeks with either i.p. AKB-6899 or i.p. DMSO. The lungs were removed and assayed to determine DNMT mRNA expression, percent CpG methylation, and fold change in mRNA. […] The data was standardized to 1.0 by the DMSO levels of the respective gene expression, (n=4 lungs per condition).

desmoplakin protein = assay: Desmoplakin protein expression in cultured PyMT tumor cells; assay type: cell-based, mouse; conditions: 10 μM, 24 hours (FIG. 5A)
Method: FIGS. 5A-5B show desmoplakin protein expression following AKB-6899 treatment. In FIG. 5A, cultured PyMT tumor cells were treated for 24 hours with DMSO or AKB-6899 (10 μM). AKB-6899 increased desmoplakin protein expression.
as §2

DNMT-1 [2] = assay: DNMT-1 mRNA expression in lungs of normal mice after systemic administration; assay type: in vivo, mouse; conditions: i.p. 17.5 mg/kg three times per week for three weeks, vs DMSO
Method: as §3

[3] = tested on: desmoplakin (DSP) gene promoter; assay: Methylation-specific PCR of DSP promoter in MDA-MB-231 cells; assay type: cell-based, human
Method: as §1
(§4) To determine whether the decrease in DNMT expression and the increase in DSP expression were relevant in human cancer, the level of desmoplakin expression in MDA-MB-231 human triple negative breast cancer cells was determined. […] (FIG. 3B).

[4] = tested on: desmoplakin (DSP) gene promoter; assay: Methylation-specific PCR of DSP promoter in PyMT breast cancer cells; assay type: cell-based, mouse
Method: as §1
Because DSP is regulated by ER/PR expression, and because late-stage PyMT tumors lose ER/PR-positivity and heavily metastasize to the lymph nodes and lungs (Lin et al., 2003), the effects of AKB-6899 on more global events that regulate gene expression was evaluated. PyMT tumor cells in culture were treated with DMSO or AKB-6899. Methylation-specific PCR for CpG islands in the desmoplakin promoter were performed. […] Trypan Blue confirmed no cell death in AKB-6899 treated cells when compared to control cells. The experiment was repeated and RNA was isolated from the cells. RT-PCR was performed and the regulation of DNA methyltransferases (DNMTs) was evaluated. […] (FIG. 1A). The decrease in mRNA levels of DNMT-1 and DNMT-3a increased the mRNA level of DSP (FIG. 4A) and increased desmoplakin protein expression (FIG. 5A).

DNMT-1 [5] = assay: DNMT-1 mRNA expression by RT-PCR in MDA-MB-231 tumor cells; assay type: cell-based, human; conditions: 25 μM, 24 hours, compared to DMSO (FIG. 1B)
Method: FIGS. 1A-1E show DNA methyltransferase mRNA expression in vitro and in vivo. […] PyMT tumor cells were left untreated, were treated with DMSO, or were treated with AKB-6899 (10, 25, or 50 μM) for 24 hours. The cells were subjected to Trizol extraction to recover total RNA. cDNA was synthesized for RT-PCR of DNMT-1 and DNMT-3a mRNA expression. […] Human MDA-MB-231 tumor cells were left untreated, were treated with DMSO, or were treated with AKB-6899 (25 μM) for 24 hours. Total RNA was isolated for RT-PCR. FIG. 1C (DNMT-1), FIG. 1D (DNMT-3a), and FIG. 1E (DNMT-3b) compare the effect of AKB-6899 with the effect of 5-aza-2′deoxycytidine (5-AZA) as assessed by RT-PCR in human cervical tumors implanted in mice that were either untreated (UTX), treated with DMSO, treated with 5-AZA, or treated with AKB-6899 (17.5 mg/kg).
as §4

O=C(O)CNC(=O)c1ncc(-c2cccc(F)c2)cc1O [AKB-6899, {[5-(3-Fluorophenyl)-3-hydroxypyridine-2-carbonyl]amino}acetic acid]
level of hypomethylation of desmoplakin promoter (in words) [1]: near complete | DSP promoter unmethylated ([1]; 25 μM (FIG. 3D)): 92.48% | RASSF1 mRNA expression in lungs (RASSF1 mRNA): increased | desmoplakin protein expression (desmoplakin protein): upregulation; also recorded: increased | DNMT-1 expression in lungs (DNMT-1 [2]): inhibited | methylation state of DSP promoter CpG islands (in words) ([3]; MDA-MB-231 cells): almost entire demethylation; also recorded: near complete | desmoplakin promoter methylation after treatment ([3]; MDA-MB-231 human triple negative breast cancer cells): 0.38% | DSP promoter unmethylated ([3]; MDA-MB-231 triple negative breast cancer cells, 25 μM (FIG. 3B)): 99.62% | DSP promoter unmethylated ([4]; PyMT breast cancer cells, 25 μM (FIG. 3A)): 100% | desmoplakin promoter methylation after treatment ([4]; PyMT mouse breast cancer cells): 0.0% | methylation state of DSP promoter CpG islands (in words) ([4]; PyMT tumor cells in culture): entirely unmethylated; also recorded: near complete | DNMT-1 mRNA expression (DNMT-1 [5]): significantly decreased; also recorded: downregulated
